Measurements from PubChem BioAssay (NCI).
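Compound exposure: 48 hours, 5 concentrations, 96-well plates. At the TGI there is no net growth.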

What was measured:
Assay in all cases: growth of human tumour cells (NCI), 48 h
[1] = system: 786-0 renal
[2] = system: A498 renal
[3] = system: A549 NSCLC
[4] = system: ACHN renal
[5] = system: CAKI-1 renal
[6] = system: CCRF-CEM leukemia
[7] = system: COLO 205 colon
[8] = system: DLD-1 colon
[9] = system: DMS 114 small cell lung
[10] = system: DMS 273 small cell lung
[11] = system: EKVX NSCLC
[12] = system: HCC-2998 colon
[13] = system: HCT-116 colon
[14] = system: HCT-15 colon
[15] = system: HOP-18 NSCLC
[16] = system: HOP-62 NSCLC
[17] = system: HOP-92 NSCLC
[18] = system: HT29 colon
[19] = system: IGROV1 ovarian
[20] = system: K-562 leukemia
[21] = system: KM12 colon
[22] = system: KM20L2 colon
[23] = system: LOX IMVI melanoma
[24] = system: LXFL 529 NSCLC
[25] = system: M14 melanoma
[26] = system: M19-MEL melanoma
[27] = system: MALME-3M melanoma
[28] = system: MOLT-4 leukemia
[29] = system: NCI-H226 lung
[30] = system: NCI-H23 lung
[31] = system: NCI-H460 lung
[32] = system: NCI-H522 lung
[33] = system: OVCAR-3 ovarian
[34] = system: OVCAR-4 ovarian
[35] = system: OVCAR-5 ovarian
[36] = system: OVCAR-8 ovarian
[37] = system: RPMI-8226 leukemia
[38] = system: RXF 393 renal
[39] = system: SF-268 CNS
[40] = system: SF-295 CNS
[41] = system: SF-539 CNS
[42] = system: SK-MEL-2 melanoma
[43] = system: SK-MEL-28 melanoma
[44] = system: SK-MEL-5 melanoma
[45] = system: SK-OV-3 ovarian
[46] = system: SN12C renal
[47] = system: SNB-19 CNS
[48] = system: SNB-75 CNS
[49] = system: SNB-78 CNS
[50] = system: SW-620 colon
[51] = system: TK-10 renal
[52] = system: U251 CNS
[53] = system: UACC-257 melanoma
[54] = system: UACC-62 melanoma
[55] = system: UO-31 renal
[56] = system: XF 498 CNS

Measured: TGI

NC(=O)CCC(NC(=O)C(F)(F)F)C(=O)O (stereo unspecified)
> 100 µM: [1] | [2] | [3] | [4] | [5] | [6] | [7] | [8] | [9] | [10] | [11] | [12] | [13] | [14] | [15] | [16] | [17] | [18] | [19] | [20] | [21] | [22] | [23] | [24] | [25] | [26] | [27] | [28] | [29] | [30] | [31] | [32] | [33] | [34] | [35] | [36] | [37] | [38] | [39] | [40] | [41] | [42] | [43] | [44] | [45] | [46] | [47] | [48] | [49] | [50] | [51] | [52] | [53] | [54] | [55] | [56]
